Laboratory results reported in article PMC5062073, “Cellular uptake of a cystine-knot peptide and modulation of its intracellular trafficking” (Scientific Reports, 2016).

What was measured:
trypsin [1] = molecular target: T1, trypsin (Bos taurus, UniProt P00760); assay: Trypsin enzymatic assay; assay type: biochemical
T1 construct: gene PRSS1
T1 sequence (P00760 24-246): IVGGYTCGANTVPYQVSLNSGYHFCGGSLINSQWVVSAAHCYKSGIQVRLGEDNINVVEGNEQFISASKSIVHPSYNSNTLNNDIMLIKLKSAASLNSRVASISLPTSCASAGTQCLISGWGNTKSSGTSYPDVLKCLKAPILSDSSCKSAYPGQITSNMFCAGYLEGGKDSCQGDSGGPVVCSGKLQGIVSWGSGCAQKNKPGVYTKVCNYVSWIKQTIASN
Procedure: Assays were done as described earlier with slight modification. Briefly, normalized proteolytic activity of trypsin (2.3 pM) toward tosyl-GPR-AMC substrate (5 μM) was measured for 2 h after pre-incubation of the peptides with protease for 1 h at room temperature. The data were plotted and fitted using KaleidaGraph v3.6 software. Apparent […] (Ki^app) was determined from at least three independent measurements.

[2] = SGF with pepsin, pH 1.2, 37 °C, peptide 0.3 mg/ml, after several days; LC/MS, A214nm peak area vs internal standard
Procedure: Peptides were incubated at a concentration of 0.3 mg/ml in simulated gastric fluid at 37 °C for the indicated times. To prepare simulated gastric fluid, 2 g of sodium chloride, 43 mg of sodium thaurocholate, 16 mg of lecithin and 100 mg of pepsin were dissolved in 1 L of Milli-Q water (18.2 MΩ.cm^−1) and adjusted to pH 1.2 with 37% hydrochloric acid. At the indicated time points, 10 μl (3 μg) aliquots were removed from the reaction, quenched with 0.25 M NaOH and then mixed with 2.6 μg of the internal standard. Samples were immediately analyzed by analytical LC/MS (Agilent 1200 series) and the area under the A214nm peak was quantified.

trypsin [3] = molecular target: trypsin (UniProt P00760); assay: enzyme inhibition assay (trypsin proteolytic activity on a fluorogenic substrate); apparent; trypsin 2.3 pM, tosyl-GPR-AMC substrate 5 uM, activity measured for 2 h after pre-incubation of the peptides with protease for 1 h at room temperature

Row | Ki (trypsin [3]) [nM] | Compound | Ki (trypsin [1]) [nM] | remaining in simulated gastric fluid [2] [%]
1 | – | CC[C@H](C)[C@@H]1NC(=O)[C@H](CCCNC(=N)N)NC(=O)[C@@H]2CCCN2C(=O)[C@@H](NC(=O)CNC(=O)[C@H](CO)NC(=O)CN)CSSC[C@@H]2NC(=O)CNC(=O)[C@H](C)NC(=O)[C@H](CC(C)C)NC(=O)[C@@H]3CSSC[C@@H](C(=O)NCC(=O)NCC(=O)N[C@@H](CC(N)=O)C(=O)N[C@@H](CO)C(=O)O)NC(=O)[C@H](Cc4ccccc4)NC(=O)CNC(=O)[C@H](CC(N)=O)NC(=O)[C@@H]4CCCN4C(=O)CNC(=O)[C@H](CSSC[C@H](NC(=O)[C@H](CCCNC(=N)N)NC(=O)[C@H](CCSC)NC(=O)[C@H](CC(C)C)NC1=O)C(=O)N[C@@H](CCCCN)C(=O)N[C@@H](CCC(N)=O)C(=O)N[C@@H](CC(=O)O)C(=O)N[C@@H](CO)C(=O)N[C@@H](CC(=O)O)C(=O)N3)NC(=O)[C@H](C(C)C)NC2=O [rEETI-II] | 0.16 ± 0.01 | 50
2 | 0.71 | Alexa488-labeled recombinant EETI-II (peptide) | – | –
3 | 0.16 | recombinant EETI-II (Ecballium elaterium trypsin inhibitor II) (peptide) | – | –
